Results from patent US11834430B2, “Compounds useful as inhibitors of isoprenylcysteine carboxyl methyltransferase” (AGENCY FOR SCIENCE, TECHNOLOGY AND RESEARCH, priority 2017, dated 2023).
Several values for one entry are separate records, joined by “and”; a condition that tells them apart may be missing. Equal values may be shown once.

Target: human ICMT (Homo sapiens (Human), UniProt O60725)
Assay: ICMT biochemical assay (Methyltransferase-Glo)
Experimental: Recombinant human ICMT was prepared by infection of Sf9 cells with a recombinant baculovirus containing the entire open reading frame of the human ICMT cDNA.
Cells producing ICMT were harvested 66 hours post-infection. The cells are homogenized and resuspended in 5 mM NaHPO4 (pH 7.0), and a cocktail of protease inhibitors. The membrane was pelleted, after removal of nuclei and debris, at 100,000×g for 1 hour. Membranes were resuspended in 5 mM NaHPO4 (pH 7.0) with 5 mM EDTA at 10-12 mg/ml. The suspension was stored at −80° C. in multiple aliquots.
An ICMT enzymatic assay was developed using Promega's Methyltransferase-GloTMreagents. In the assay, ICMT catalyzes the methylation of the N-Acetyl-S-farnesyl-L-cysteine by transferring a methyl group from SAM to the farnesylated cysteine and further converts the SAM to SAH. The methyltransferase activity is measured based on the amount of SAH produced from the reaction through the use of coupling enzymes that convert the SAH to ATP. The MTase-Glo detection solution then catalyzes the formation of light from ATP.
A final concentration of 2.0 μM and 20 μM of SAM and peptide were added and further incubated for 90 minutes at room temperature before adding the MTase Glo and detection reagent. Reaction signals were detected using microplate readers on luminescent mode (Satire Tecan). The IC50 was determined by nonlinear regression, using GraphPad Prism version, 5.03.

[1] = ICMT membrane extract from Sf-9 cells, 30 min preincubation, 90 min reaction

Sequence of human ICMT (O60725 whole entry): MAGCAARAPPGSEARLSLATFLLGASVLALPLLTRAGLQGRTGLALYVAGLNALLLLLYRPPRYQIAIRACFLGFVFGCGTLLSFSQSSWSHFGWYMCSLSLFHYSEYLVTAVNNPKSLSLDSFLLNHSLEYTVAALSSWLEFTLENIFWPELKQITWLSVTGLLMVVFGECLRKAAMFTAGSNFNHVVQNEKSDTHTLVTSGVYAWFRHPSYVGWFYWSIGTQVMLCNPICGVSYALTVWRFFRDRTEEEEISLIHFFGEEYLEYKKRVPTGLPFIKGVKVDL

SMILES	IC50 [1]	IC50 (unit (nM)) [nM]
N#Cc1ccc(OCCOc2cccc(-n3cnnc3)c2)c(F)c1 [Compound 38, 4-(2-(3-(4H-1,2,4-triazol-4-yl)phenoxy)ethoxy)-3-fluorobenzonitrile]	310 nM	–
Cc1cc(C#N)ccc1O[C@H](C)COc1cccc(-c2ccnn2C)c1 [Compound 39, (R)-3-methyl-4-((1-(3-(1-methyl-1H-pyrazol-5-yl)phenoxy)propan-2-yl)oxy)benzonitrile]	4.7 nM	–
Cc1cc(C#N)ccc1O[C@@H](C)COc1cccc(-c2ccnn2C)c1 [Compound 40, (S)-3-methyl-4-((1-(3-(1-methyl-1H-pyrazol-5-yl)phenoxy)propan-2-yl)oxy)benzonitrile]	9.5 nM	–
C[C@@H](COc1cccc(-n2ccnc2C2CC2)c1)Oc1ccc(C#N)cc1F [Compound 42, (S)-4-((1-(3-(2-cyclopropyl-1H-imidazol-1-yl)phenoxy)propan-2-yl)oxy)-3-fluorobenzonitrile]	12 nM	–
Cc1nccn1-c1cccc(OCC(C)Oc2ccc(C#N)cc2Cl)c1 (centres unmarked) [Compound 44, 3-chloro-4-((1-(3-(2-methyl-1H-imidazol-1-yl)phenoxy)propan-2-yl)oxy)benzonitrile]	780 nM	–
COc1cc(C#N)ccc1O[C@H](C)COc1cccc(-c2ccnn2C)c1 [Compound 48, (R)-3-methoxy-4-((1-(3-(1-methyl-1H-pyrazol-5-yl)phenoxy)propan-2-yl)oxy)benzonitrile]	0.64 nM	–
Cc1cc(C#N)ccc1O[C@@H](C)COc1cccc(-n2ccnc2C2CC2)c1 [Compound 49, (S)-4-((1-(3-(2-cyclopropyl-1H-imidazol-1-yl)phenoxy)propan-2-yl)oxy)-3-methylbenzonitrile]	0.3 nM	–
Fc1cc(Cl)ccc1OCCOc1cccc(-n2ccnc2C2CC2)c1 [Compound 50, 1-(3-(2-(4-chloro-2-fluorophenoxy)ethoxy)phenyl)-2-cyclopropyl-1H-imidazole]	12 nM	–
C#Cc1ccc(OCCOc2cccc(-n3ccnc3C)c2)c(F)c1 [Compound 51, 1-(3-(2-(4-ethynyl-2-fluorophenoxy)ethoxy)phenyl)-2-methyl-1H-imidazole]	20 nM	–
N#Cc1ccc(OCCOc2cccc(-n3ccnc3C3CC3)c2)c(N)c1 [Compound 52, 3-amino-4-(2-(3-(2-cyclopropyl-1H-imidazol-1-yl)phenoxy)ethoxy)benzonitrile]	3.6 nM	–
Cn1nccc1-c1cccc(OCCOc2ccc(F)cc2C#N)c1 [Compound 54, 5-fluoro-2-(2-(3-(1-methyl-1H-pyrazol-5-yl)phenoxy)ethoxy)benzonitrile]	32 nM	–
Cc1nccn1-c1cccc(OC[C@@H](C)Oc2ccc(C#N)cc2Cl)c1 [Compound 55, (R)-3-chloro-4-((1-(3-(2-methyl-1H-imidazol-1-yl)phenoxy)propan-2-yl)oxy)benzonitrile]	11 nM	–
Cc1nccn1-c1cccc(OC[C@H](C)Oc2ccc(C#N)cc2Cl)c1 [Compound 56, (S)-3-chloro-4-((1-(3-(2-methyl-1H-imidazol-1-yl)phenoxy)propan-2-yl)oxy)benzonitrile]	0.15 nM	–
Cn1nccc1-c1cccc(OCCOc2ccc(C#N)cc2)c1 [Compound 57, 4-(2-(3-(1-methyl-1H-pyrazol-5-yl)phenoxy)ethoxy)benzonitrile]	9 nM	–
Cc1ccc(OCCOc2cccc(-n3ccnc3C)c2)c(F)c1 [Compound 58, 1-(3-(2-(2-fluoro-4-methylphenoxy)ethoxy)phenyl)-2-methyl-1H-imidazole]	60 nM	–
COc1cc(C#N)ccc1O[C@@H](C)COc1cccc(-c2ccnn2C)c1 [Compound 60, (S)-3-methoxy-4-((1-(3-(1-methyl-1H-pyrazol-5-yl)phenoxy)propan-2-yl)oxy)benzonitrile]	–	0.81
Cc1cc(C#N)ccc1OC(C)COc1cccc(-n2ccnc2C2CC2)c1 (centres unmarked) [Compound 61, 4-((1-(3-(2-cyclopropyl-1H-imidazol-1-yl)phenoxy)propan-2-yl)oxy)-3-methylbenzonitrile]	–	0.88
N#Cc1ccc(OCCOc2cccc(-n3ccnc3C3CC3)c2)cc1 [Compound 62, 4-(2-(3-(2-cyclopropyl-1H-imidazol-1-yl)phenoxy)ethoxy)benzonitrile]	8.5 nM	–
Cc1nccn1-c1cccc(OC(C)C(C)Oc2ccc(C#N)cc2F)c1 (centres unmarked) [Compound 63, 3-fluoro-4-(3-(3-(2-methyl-1H-imidazol-1-yl)phenoxy)butan-2-yloxy)benzonitrile]	18 nM and 6 nM	–
CC(COc1cccc(-c2ccno2)c1)Oc1ccc(C#N)cc1F (centres unmarked) [Compound 64, 3-fluoro-4-((1-(3-(isoxazol-5-yl)phenoxy)propan-2-yl)oxy)benzonitrile]	270 nM and 470 nM	–
C[C@H](COc1cccc(-c2ccno2)c1)Oc1ccc(C#N)cc1F [Compound 65, (R)-3-fluoro-4-((1-(3-(isoxazol-5-yl)phenoxy)propan-2-yl)oxy)benzonitrile]	4670 nM and 4390 nM	–

SMILES	IC50 [1]	IC50 (unit (nM)) [nM]
C[C@@H](COc1cccc(-c2ccno2)c1)Oc1ccc(C#N)cc1F [Compound 66, (S)-3-fluoro-4-((1-(3-(isoxazol-5-yl)phenoxy)propan-2-yl)oxy)benzonitrile]	180 nM and 190 nM	–
N#Cc1ccc(OCCOc2cccc(-c3cnoc3)c2)cc1 [Compound 67, 4-(2-(3-(isoxazol-4-yl)phenoxy)ethoxy)benzonitrile]	140 nM and 100 nM	–
Cc1cc(C#N)ccc1O[C@H](C)COc1cccc(-n2ccnc2C2CC2)c1 [Compound 68, (R)-4-((1-(3-(2-cyclopropyl-1H-imidazol-1-yl)phenoxy)propan-2-yl)oxy)-3-methylbenzonitrile]	1.5 nM and 13 nM	–
COc1cc(C#N)ccc1O[C@@H](C)COc1cccc(-n2ccnc2C)c1 [Compound 72, (S)-3-methoxy-4-((1-(3-(2-methyl-1H-imidazol-1-yl)phenoxy)propan-2-yl)oxy)benzonitrile]	4.5 nM	–
Cc1nccn1-c1cccc(OCCOc2ccc(C#N)nn2)c1 [Compound 73, 6-(2-(3-(2-methyl-1H-imidazol-1-yl)phenoxy)ethoxy)pyridazine-3-carbonitrile]	950 nM	–
Cc1nccn1-c1cccc(OCCOc2ncc(C#N)cc2F)c1 [Compound 74, 5-fluoro-6-(2-(3-(2-methyl-1H-imidazol-1-yl)phenoxy)ethoxy)nicotinonitrile]	65 nM	–
Cn1nccc1-c1cccc(OCCOc2ccc(C#N)cn2)c1 [Compound 75, 6-(2-(3-(1-methyl-1H-pyrazol-5-yl)phenoxy)ethoxy)nicotinonitrile]	60 nM and 62 nM	–
N#Cc1ccc(OCCOc2ccnc(-n3ccnc3C3CC3)c2)c(F)c1 [Compound 76, 4-(2-((2-(2-cyclopropyl-1H-imidazol-1-yl)pyridin-4-yl)oxy)ethoxy)-3-fluorobenzonitrile]	–	0.39
COc1cc(C#N)ccc1O[C@H](C)COc1cccc(-n2ccnc2C)c1 [Compound 77, (R)-3-methoxy-4-((1-(3-(2-methyl-1H-imidazol-1-yl)phenoxy)propan-2-yl)oxy)benzonitrile]	–	0.7
Cc1nccn1-c1cccc(OC[C@H](C)Oc2ccc(C#N)cc2F)c1 [Compound 79, (S)-3-fluoro-4-((1-(3-(2-methyl-1H-imidazol-1-yl)phenoxy)propan-2-yl)oxy)benzonitrile]	31 nM	–
Cn1nccc1-c1cccc(OCCOc2ncc(C#N)cc2F)c1 [Compound 82, 5-fluoro-6-(2-(3-(1-methyl-1H-pyrazol-5-yl)phenoxy)ethoxy)nicotinonitrile]	210 nM and 190 nM	–
N#Cc1cnc(OCCOc2cccc(-n3ccnc3C3CC3)c2)c(F)c1 [Compound 83, 6-(2-(3-(2-cyclopropyl-1H-imidazol-1-yl)phenoxy)ethoxy)-5-fluoronicotinonitrile]	3.7 nM	–
N#Cc1ccc(OCCOc2cccc(-c3cnoc3)c2)c(F)c1 [Compound 84, 3-fluoro-4-(2-(3-(isoxazol-4-yl)phenoxy)ethoxy)benzonitrile]	28 nM	–
Cc1nccn1-c1cc(OCCOc2ccc(C#N)cc2)ccn1 [Compound 85, 4-(2-((2-(2-methyl-1H-imidazol-1-yl)pyridin-4-yl)oxy)ethoxy)benzonitrile]	15 nM	–
Cc1nccn1-c1cccc(OCCOc2ccc(C#N)cc2F)n1 [Compound 86, 3-fluoro-4-(2-((6-(2-methyl-1H-imidazol-1-yl)pyridin-2-yl)oxy)ethoxy)benzonitrile]	17 nM	–
Cc1nccn1-c1cc(OCCOc2ncc(C#N)cc2F)ccc1F [Compound 87, 5-fluoro-6-(2-(4-fluoro-3-(2-methyl-1H-imidazol-1-yl)phenoxy)ethoxy)nicotinonitrile]	33 nM	–
N#Cc1ccc(OCCOc2ccnc(-n3ccnc3C3CC3)c2)cc1 [Compound 89, 4-(2-((2-(2-cyclopropyl-1H-imidazol-1-yl)pyridin-4-yl)oxy)ethoxy)benzonitrile]	2.8 nM	–
N#Cc1cnc(OCCOc2ccnc(-n3ccnc3C3CC3)c2)c(F)c1 [Compound 90, 6-(2-((2-(2-cyclopropyl-1H-imidazol-1-yl)pyridin-4-yl)oxy)ethoxy)-5-fluoronicotinonitrile]	37 nM	–
Cc1nccn1-c1cc(OCCOc2ncc(C#N)cc2F)ccn1 [Compound 91, 5-fluoro-6-(2-((2-(2-methyl-1H-imidazol-1-yl)pyridin-4-yl)oxy)ethoxy)nicotinonitrile]	120 nM	–
Cn1nccc1-c1cncc(OCCOc2ccc(C#N)cc2F)c1 [Compound 92, 3-fluoro-4-(2-((5-(1-methyl-1H-pyrazol-5-yl)pyridin-3-yl)oxy)ethoxy)benzonitrile]	300 to 1000 nM	–
